The results in this text go back to patent US20080171746A1, “Method for Preventing Cardiovascular Diseases” (priority 2005, published 2008).

Some results are limits rather than exact numbers.

The test system of one experiment is isolated guinea pig Langendorff hearts. As to the kind of experiment: Perfused guinea-pig Langendorff heart (bolus injection into the perfusion flow).
Conditions: not given
The text has this:
(Modification: Bolus Injection into the Perfusion Flow)
Guinea-pigs (male, Dunkin Hartley, 400-500 g; Charles River, Sulzfeld, Germany) kept in Macrolon® cages (type IV) with free access to food (maintenance diet no. 3418, Provimi-Kliba, CH-4303 Kaiseraugst) and tap water, were killed by cervical dislocation and the thoracic cavity was opened. The heart was rapidly excised and perfused with Krebs-Henseleit solution at a constant pressure of 80 cm H2O ([…]) via retrograde cannulation of the aorta in a Langendorff apparatus. The Krebs-Henseleit solution was composed as follows (mM: NaCl 118, KCl 4.7, CaCl2 1.9, MgSO4 1.2, KH2PO4 1.2, NaHCO3 25.0, and glucose 5.0, at 37° C., gassed with 95% O2/5% CO2, v/v). Through an incision in the left atrium, a water-filled balloon catheter connected to a Statham P 23 Db pressure transducer was introduced into the left ventricle and preloaded to a pressure of […], mimicking the diastolic pressure.
Precoronary perfusate flow (CF, at an initial average passive flow of 11-13 ml/min) was measured using an electromagnetic flow meter. The change in left ventricular isovolumetric pressure amplitude (LVP) calculated by subtracting the diastolic from the systolic pressure, the rate of maximal left ventricular pressure rise (dP/dtmax), and the rate of the spontaneously beating heart (HR) were continuously recorded and monitored by a data acquisition system (Notocord, hem version 3.3; F-78290 Croissy).
Following at least 1 h of perfusion and stabilization of all cardiac parameters, the test drug is injected as 100 μl bolus within 2 s directly into the perfusion tube connected to the aortic inflow and increased threefold after the previous dose has produced its coronary dilatory response and the perfusion flow has returned to pre-drug values again. Thee drug-induced change in cardiac parameters is expressed as percentage of the initial pre-drug values.
For the compound `Cc1onc(-c2ccccc2)c1-c1ccc(S(N)(=O)=O)cc1` [Valdecoxib], the coronary heart flow entry is listed as “substantially lack the ability to increase coronary heart flow”.

`Cc1ccc(Nc2c(F)cccc2Cl)c(CC(=O)O)c1` [Lumiracoxib]: the coronary heart flow entry was “substantially lack the ability to increase coronary heart flow”.

Regarding `Cc1ccc(-c2ncc(Cl)cc2-c2ccc(S(C)(=O)=O)cc2)cn1` [Etorecoxib], the coronary heart flow entry is listed as “substantially lack the ability to increase coronary heart flow”.

`CCC(=O)NS(=O)(=O)c1ccc(-c2c(-c3ccccc3)noc2C)cc1` [Parecoxib]: the coronary heart flow result is listed as “substantially lack the ability to increase coronary heart flow”.

In the case of `Cc1ccc(-c2cc(C(F)(F)F)nn2-c2ccc(S(N)(=O)=O)cc2)cc1` [Celecoxib], the heart rate entry is “no effect” and the left ventricular pressure result is on record as “no effect”.

On to `O=C(O)Cc1ccccc1Nc1c(Cl)cccc1Cl` [Diclofenac], for which the coronary heart flow result is listed as “substantially lack the ability to increase coronary heart flow”.

Turning to `CS(=O)(=O)c1ccc(C2=C(c3ccccc3)C(=O)OC2)cc1` [Rofecoxib], the coronary heart flow result was “substantially lack the ability to increase coronary heart flow”.

Another experiment concerns the target T1, PDE5A1 (Homo sapiens, UniProt O76074).
T1 construct: made in house; host or cells: SF21 insect cells (baculovirus; virus made in SF9)
As to the kind of experiment: Inhibition of PDE5A1 activity, modified SPA (scintillation proximity assay) with recombinant enzyme. Type of experiment: biochemical. The settings on record: in vitro. The text has this: The PDE5A1 (GB no. AF043731) was cloned via PCR from Kidney cDNA. A 5′ fragment was amplified with OZ489 (5′-[…] -3′) and OZ 493 (5′-[…]-3′), a 3′ fragment was amplified with OZ 492 (5′-[…]-3′) and OZ 490 (5′-[…]-3′). Both fragments were cloned into pCR2.1-Topo. Primers OZ 493 and OZ 492 have a nucleotide substitution that doesn't affect the translated sequence, but introduces an EcoRI cutting site. The 2 fragments were cut out of the cloning vector with EcoRI and subcloned together in a single ligation reaction into pBP9, resulting in the construct PZ 287. […] For correct expression it was subcloned with Xmal/Sacl into pBacPak8.
The recombinant baculovirus was prepared by means of homologous recombination in SF9 insect cells. The expression plasmid was cotransfected with Bac-N-Blue (Invitrogen, Groningen, NL) or Baculo-Gold DNA (Pharmingen, Hamburg) using a standard protocol (Pharmingen, Hamburg). Wt virus-free recombinant virus supernatant was selected using plaque assay methods. After that, high-titre virus supernatant was prepared by amplifying 3 times. PDE was expressed in SF21 cells by infecting 2×10^6 cells/ml with an MOI (multiplicity of infection) between 1 and 10 in serum-free SF900 medium (Life Technologies, Paisley, UK). The cells were cultured at 28° C. for 48-72 hours, after which they were pelleted for 5-10 min at 1000 g and 4° C.
The SF21 insect cells were resuspended, at a concentration of approx. 10^7 cells/ml, in ice-cold (4° C.) homogenization buffer (20 mM Tris, pH 8.2, containing the following additions: 140 mM NaCl, 3.8 mM KCl, 1 mM EGTA, 1 mM MgCl2, 10 mM β-mercaptoethanol, 2 mM benzamidine, 0.4 mM Pefablock, 10 μM leupeptin, 10 μM pepstatin A, 5 μM trypsin inhibitor) and disrupted by ultrasonication. The homogenate was then centrifuged for 10 min at 1000× g and the supernatant was stored at −80° C. until subsequent use (see below). The protein content was determined by the Bradford method (BioRad, Munich) using BSA as the standard.
The test volume is 100 μl and contains 20 mM Tris buffer (pH 7.4), 0.1 mg of BSA (bovine serum albumin)/ml, 5 mM Mg^2+, 0.5 μM cGMP (including about 50,000 cpm of [3H]cGMP as a tracer), 1 μl of the respective substance dilution in DMSO and sufficient recombinant PDE (1000× g supernatant, see above) to ensure that 10-20% of the cGMP is converted under the said experimental conditions. […] After a preincubation of 5 min at 37° C., the reaction is started by adding the substrate (cGMP) and the assay is incubated for a further 15 min; after that, it is stopped by adding SPA beads (50 μl). In accordance with the manufacturer's instructions, the SPA beads had previously been resuspended in water, but were then diluted 1:3 (v/v) in water; the diluted solution also contains 3 mM IBMX to ensure a complete PDE activity stop. After the beads have been sedimented (>30 min), the MTP's are analyzed in commercially available luminescence detection devices. The corresponding IC50 values of the compounds for the inhibition of PDE activity are determined from the concentration-effect curves by means of non-linear regression.
As to `Cc1onc(-c2ccccc2)c1-c1ccc(S(N)(=O)=O)cc1` [Valdecoxib], the “PDE5 inhibition in vitro (result in words)” value (“PDE5 inhibition in vitro” below) was “show no effects”.

In the case of `Cc1ccc(Nc2c(F)cccc2Cl)c(CC(=O)O)c1` [Lumiracoxib], the “PDE5 inhibition in vitro” value is “show no effects”.

For `Cc1ccc(-c2ncc(Cl)cc2-c2ccc(S(C)(=O)=O)cc2)cn1` [Etorecoxib], the “PDE5 inhibition in vitro” value is “show no effects”.

As to `CCC(=O)NS(=O)(=O)c1ccc(-c2c(-c3ccccc3)noc2C)cc1` [Parecoxib], the “PDE5 inhibition in vitro” value was “show no effects”.

For the compound `CS(=O)(=O)Nc1cc2c(cc1Oc1ccc(F)cc1F)C(=O)CC2` [flosulide], the “PDE5 inhibition in vitro” value was “possess PDE5 activity in the μM range”.

As for `CS(=O)(=O)Nc1ccc([N+](=O)[O-])cc1Oc1ccccc1` [nimesulide], the “PDE5 inhibition in vitro” value was “possess PDE5 activity in the μM range”.

With `O=C(O)Cc1ccccc1Nc1c(Cl)cccc1Cl` [Diclofenac], the “PDE5 inhibition in vitro” value is recorded as “show no effects”.

Regarding `CS(=O)(=O)c1ccc(C2=C(c3ccccc3)C(=O)OC2)cc1` [Rofecoxib], the “PDE5 inhibition in vitro” value is on record as “show no effects”.

As for `CC(=O)Oc1ccccc1C(=O)O` [Aspirin, acetylsalicylic acid], the “PDE5 inhibition in vitro” value is recorded as “show no effects”.

Consider `CS(=O)(=O)Nc1cc2c(cc1Sc1ccc(F)cc1F)C(=O)CC2` [L-745337], for which the “PDE5 inhibition in vitro” value was “possess PDE5 activity in the μM range”.

Staying with this experiment, now noted: recombinant PDE5A1, 0.5 μM cGMP substrate; read-out: Inhibition of the PDE5 activity (IC50).
As for `Cc1onc(-c2ccccc2)c1-c1ccc(S(N)(=O)=O)cc1` [Valdecoxib], the IC50 was over 100 µM.

`Cc1ccc(Nc2c(F)cccc2Cl)c(CC(=O)O)c1` [Lumiracoxib]: the IC50 is over 100 µM.

`Cc1ccc(-c2ncc(Cl)cc2-c2ccc(S(C)(=O)=O)cc2)cn1` [Etorecoxib]: the half-maximal inhibitory concentration (IC50) is over 100 µM.

On to `CCC(=O)NS(=O)(=O)c1ccc(-c2c(-c3ccccc3)noc2C)cc1` [Parecoxib], for which the IC50 was over 100 µM.

`O=C(O)Cc1ccccc1Nc1c(Cl)cccc1Cl` [Diclofenac]: the IC50 is over 100 µM.

For `CS(=O)(=O)c1ccc(C2=C(c3ccccc3)C(=O)OC2)cc1` [Rofecoxib], the IC50 is over 100 µM.

For the compound `CC(=O)Oc1ccccc1C(=O)O` [Aspirin, acetylsalicylic acid], the 50% inhibitory concentration (IC50) was over 100 µM.
